These results are taken from patent US8431530B2, “Compositions and methods for treating aids or cancer by inhibiting the secretion of microparticles” (priority 2009, dated 2013).

The conditions of data set [1]: lower doses could be less toxic; cited from earlier work.
The test system of data set [2] is human tumor cell lines. The conditions noted are these: cited from earlier work.
Data set [3] concerns the target Mortalin (Homo sapiens, UniProt P38646). The conditions noted are these: literature; inactivates chaperone function; cited from earlier work.
In data set [4] the test system is HIV-1 Nef-GFP secretion, cell line H. As to the kind of experiment: HIV-1 Nef-GFP induced secretion, fluorescent plate reader assay. The data set is classed as cell-based. The conditions noted are these: HIV-1 Nef-GFP (sM1 column head prints GFP/sM1).
Data set [5] concerns pNL4-3 in Jurkat cells. Kind of data set: p24 assay of virion production after pNL4-3 co-transfection. The data set is classed as cell-based, HIV. The conditions noted are these: Jurkat; for p24: co-transfected with pNL4-3; for Effect (a/b): p24 of sample / p24 of pNL4-3 + sM1. On the procedure:
I. Jurkat cells were co-transfected as shown below: (transfection efficiency 30-40% by Chariot Kit):
(§1) pNL4-3 is a clone containing the viral genome. Transfection into cells allows expression of the viral genome and ultimately virion formation and release. The amount of virion production in the extracellular supernatant is measured through p24 protein (viral protein). Samples were collected at 48 hours and 96 hours post-infection.
(§2) At 48 hr postinfection two plates in each group were removed and analyzed by: • a. p24 assay • b. Nef assay • c. Infectivity assay • At 96 hr postinfection the other two plates in each group were removed and analyzed by: • a. p24 assay • b. Nef assay • c. Infectivity assay

The subject of data set [6] is Gag-GFP + HIV-1wtNef-RFP secretion, THP-1 Monocyte. As to the kind of experiment: Gag-GFP secretion in presence of wtNef-RFP, fluorescent plate reader assay. The data set is classed as cell-based. The note with it: Gag-GFP + HIV-1wtNef-RFP + peptide, 48 hours. The protocol:
(§3) Cells were transfected with the pQBI-HIV Gag-GFP construct, wtNef-RFP, and either the antagonist (SMRwt peptide), the negative control SMRmt peptide, or a random peptide sM1 with Chariot for 48 hours. The conditioned supernatants from these cultures were assayed for GFP fluorescence by plate reader.

Data set [7] has as its system Gag-GFP + HIV-1wtNef-RFP secretion, Jurkat. The data set is described as above. The note with it: Jurkat, Gag-GFP + HIV-1wtNef-RFP + peptide, 48 hours. The data set is classed as cell-based. On the procedure: as §3
Data set [8] has as its system NefGFP release from HEK293 cells. As to the kind of experiment: Nef-GFP co-transfection secretion assay, GFP fluorescence of supernatant. The data set is classed as cell-based. The note with it: HEK293, 0.5 μg Nef-GFP + 0.5 μg peptide, Chariot, 48 h; relative to NefGFP+sM1 (100%). On the procedure:
Therefore, a set of co-transfection experiments were performed. HEK293 cells were co-transfected with 0.5 μg of pQBI-HIV Nef-GFP (expresses wild type Nef protein) and either 0.5 μg of HIV-1 Nef SMRwt or SMRmut peptide or sM1 peptide (a totally random control peptide, ALAETCQNAWA (SEQ ID NO: 7)) with Chariot. Briefly, the wild-type Nef-GFP clone and the SMR peptides were complexed with Chariot reagent for 30 minutes at RT. The DNA/peptide/Chariot complex was added to HEK293 cells in serum-free media, and the cells were plated. Following incubation for 2 hours at 37° C., media with serum was added to the dish, and the cells were incubated at 37° C. for 48 h. The media was then collected and assayed for secretion using a spectrofluorimeter. The conditioned supernatants from these cultures were assayed for GFP fluorescence by plate reader.

Data set [9] deals with HIV-1 Gag-GFP secretion, U937. Kind of data set: HIV-1 Gag-GFP induced secretion, fluorescent plate reader assay. The note with it: U937, HIV-1 Gag-GFP (sM1 column head prints GFP/sM1), 0.5 μg peptide, 48 hours. The data set is classed as cell-based. On the procedure:
(§4) Cells were co-transfected with 0.5 μg of pQBI-HIV Gag-GFP (expresses wild type Gag protein) and either 0.5 μg of HIV-1 Nef SMRwt, SMRmut peptide, sM1 peptide or untransfected controls with Chariot for 48 hours. The conditioned supernatants from these cultures were assayed for GFP fluorescence by plate reader.

Data set [10] has as its system HIV-1 Gag-GFP secretion, HEK293. The description is as above. The data set is classed as cell-based. The note with it: HEK293, HIV-1 Gag-GFP (sM1 column head prints GFP/sM1), 0.5 μg peptide, 48 hours. The protocol: as §4
Data set [11] has as its system HIV-1 Gag-GFP secretion, Jurkat. The data set is described as above. The note with it: HIV-1 Gag-GFP (sM1 column head prints GFP/sM1), 0.5 μg peptide, 48 hours. The data set is classed as cell-based. The protocol: as §4
Data set [12] has as its system HIV-1 Gag-GFP secretion, THP-1. Described as above. The conditions noted are these: THP-1, HIV-1 Gag-GFP (sM1 column head prints GFP/sM1), 0.5 μg peptide, 48 hours. The data set is classed as cell-based. The protocol:
as §4

Data set [13] relates to pNL4-3 in 293 cells. Kind of data set: p24 assay of virion production after pNL4-3 co-transfection. The data set is classed as cell-based, HIV. The conditions noted are these: for p24: co-transfected with pNL4-3; for Effect (a/b): p24 of sample / p24 of pNL4-3 + sM1. On the procedure: as §1, §2

Sequence of Mortalin (P38646 47-679): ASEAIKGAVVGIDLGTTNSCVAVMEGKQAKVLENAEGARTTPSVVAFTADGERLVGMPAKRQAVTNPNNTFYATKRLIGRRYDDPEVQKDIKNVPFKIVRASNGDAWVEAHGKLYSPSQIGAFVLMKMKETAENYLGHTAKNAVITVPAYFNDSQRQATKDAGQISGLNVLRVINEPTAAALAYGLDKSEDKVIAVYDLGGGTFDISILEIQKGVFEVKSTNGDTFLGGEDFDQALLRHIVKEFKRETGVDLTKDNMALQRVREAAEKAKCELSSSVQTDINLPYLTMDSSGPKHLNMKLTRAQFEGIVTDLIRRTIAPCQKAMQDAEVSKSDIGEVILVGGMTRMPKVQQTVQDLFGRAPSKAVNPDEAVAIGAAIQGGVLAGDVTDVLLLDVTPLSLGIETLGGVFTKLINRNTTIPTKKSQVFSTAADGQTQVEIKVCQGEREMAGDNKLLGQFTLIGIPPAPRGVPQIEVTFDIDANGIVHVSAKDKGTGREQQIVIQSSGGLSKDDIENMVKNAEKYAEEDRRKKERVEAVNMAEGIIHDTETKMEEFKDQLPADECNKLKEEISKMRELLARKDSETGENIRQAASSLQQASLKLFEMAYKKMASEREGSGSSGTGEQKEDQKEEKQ

With `CCn1c(=O)/c(=C2\Sc3ccccc3N2C)s/c1=C\c1cccc[n+]1CC.[Cl-]` [MKT-077], in data set [1], the “toxicity in clinical trials” value is given as “renal toxicity”. Moreover, the “death of cancer cells” value in data set [2] (literature (Deocaris et al. 2007)) is recorded as “causes selective death of cancer cells”. Also, the “senescence in human tumor cell lines” value in data set [2] (literature) is given as “inducing senescence”. Moreover, the “binding to Mortalin” value in data set [3] is listed as “binds to the nucleotide-binding domain (NBD) of Mortalin”.
Take “ALAETCQNAWA [sM1, a totally random control peptide]”: the “Increase in Secretion (relative to untransfected cells), exp condition/UT” value is 1.05x in data set [4]; 1.05x in data set [9]; 2.05x in [10]; 1.09x in data set [11]; 0.85x in data set [12]. Besides, the p24 in data set [5] (48 hr) was 0 pg/mL; in data set [5] (96 hr), 30 pg/mL; in data set [13] (293, 48 hr) it was 45 pg/mL; in data set [13] (293, 96 hr) it was 960 pg/mL. Also, the “Effect (a/b)” value in [5] (48 hr) came out at 1; in data set [5] (96 hr), 1; in data set [13] (293, 48 hr) it was 1.0; in data set [13] (293, 96 hr), 1. Also, the “Secretion relative to untransfected cells” value in data set [6] (first line) is listed as 43.11x; in data set [6] (second line (not explained)) it was 20.51x; in data set [7] (first line), 61.99x; in [7] (second line (not explained)), 40.36x. Also, the “release of NefGFP into the extracellular supernatant (GFP fluorescence)” value in data set [8] is “no effect”.
